Inhibition and IC50 data for two compounds are collected here from US9908848B2, “Amide derivatives of lactam based N-acylethanolamine acid amidase (NAAA) inhibitors” (The Regents of the University of California, priority 2013, dated 2018).

One may read the IC50 as the concentration that gives 50% inhibition. The low end stands for greater potency, the high end for weaker potency.

Assay [1] concerns the target T1, Rat AC (r-AC), Acid Ceramidase (Rattus norvegicus, UniProt Q6P7S1).
T1 construct: V5 (C); His (C); made in house; host or cells: HEK293 cells transfected with pEF6-rAC-V5/His, selected with G418; soluble fraction after freeze/thaw
T1 sequence (Q6P7S1 21-394): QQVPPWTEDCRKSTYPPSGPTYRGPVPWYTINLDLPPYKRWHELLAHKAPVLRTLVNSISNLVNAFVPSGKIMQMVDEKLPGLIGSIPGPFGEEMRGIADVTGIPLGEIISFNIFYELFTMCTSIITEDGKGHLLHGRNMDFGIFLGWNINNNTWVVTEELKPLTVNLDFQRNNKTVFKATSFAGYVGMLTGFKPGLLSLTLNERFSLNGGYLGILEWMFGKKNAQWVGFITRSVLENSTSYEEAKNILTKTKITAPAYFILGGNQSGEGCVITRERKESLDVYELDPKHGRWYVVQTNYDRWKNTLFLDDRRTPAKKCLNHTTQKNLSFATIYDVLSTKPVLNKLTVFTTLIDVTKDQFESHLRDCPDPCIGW
The assay is described as follows: Rat AC (r-AC) assay, UPLC/MS. The note with it: read-out: r-AC UPLC/MS assay % inhib. The assay is classed as biochemical. The procedure:
The selectivity of selected compounds versus Acid Ceramidase (AC) was determined.
Rat AC (r-AC) was cloned from a brain cDNA library using primers based on the sequence obtained from the National Center for Biotechnology Information (NCBI) database: 5′rAC (5′-GACCATGCTGGGCCGTAGT-3′) (SEQ ID NO:1) and 3′rAC (5′-CCAGCCTATACAAGGGTCT-3′) (SEQ ID NO:2). The PCR (High Fidelity PCR Master, Roche) product was subcloned into a pEF6-V5/His vector (Invitrogen) to construct a mammalian expression vector encoding V5/His-tagged rat AC. HEK293 cells were transfected with pEF6-rAC-V5/His using Super-Fect reagent (Qiagen) and screened with G418 (0.3 mg/mL). Cells were suspended in 20 mM Tris HCl (pH 7.5) containing 0.32M sucrose, sonicated and centrifuged at 800×g for 15 min at 4° C. The supernatants were centrifuged again at 12,000×g for 30 min at 4° C. The pellets were suspended in phosphate-buffered saline (PBS) and subjected to 2 freeze-thaw cycles at −80° C. The suspensions were centrifuged at 105,000×g for 1 hour at 4° C. The supernatants containing recombinant AC were kept at −80° C. until use. Protein concentration was measured using the bicinchoninic acid (BCA) assay (Pierce). Recombinant rat AC (50 μg) was preincubated with inhibitors (final DMSO concentration 1%) in assay buffer (100 mM sodium phosphate, 0.1% Nonidet P-40, 150 mM NaCl, 3 mM DTT, 100 mM sodium citrate, pH 4.5) for 30 min at 37° C. Reactions were started by the addition of 100 μM N-lauroyl ceramide (Nu-Chek Prep, Elysian, Minn.) and carried on for 30 min at 37° C. Reactions were stopped by addition of a mixture of chloroform/methanol (2:1, vol/vol) containing 1 nmol of heptadecanoic acid (HDA; NuChek Prep). The organic phases were collected, dried under N2, and analyzed by LC-MS in the negative-ion mode using […] (HDA) as internal standard (m/z=199 for lauric acid, m/z=269 for HDA). HDA was eluted on an XDB Eclipse C18 column isocratically at 2.2 mL/min for 1 min with a solvent mixture of 95% methanol and 5% water, both containing 0.25% acetic acid and 5 mM ammonium acetate. The column temperature was 50° C. Electrospray ionization (ESI) was in the negative mode, capillary voltage as 4 kV, and fragmentor voltage was 100 V. N2 was used as drying gas at a flow rate of 13 L/min and a temperature of 350° C. Nebulizer pressure was set at 60 psi. We monitored […] in the selected-ion monitoring (SIM) mode using HDA as internal standard. Calibration curves were generated using commercial lauric acid (Nu-Chek Prep; m/z=199).

A further assay addresses T2, r-NAAA (Rattus norvegicus, UniProt Q5KTC7).
T2 construct: Lysosomal NAAA protein preparation was obtained by homogenizing male Sprague-Dawley rat lungs; tissue Charles River; host or cells: male Sprague-Dawley rat lung, soluble lysosomal fraction
T2 sequence (Q5KTC7 34-362): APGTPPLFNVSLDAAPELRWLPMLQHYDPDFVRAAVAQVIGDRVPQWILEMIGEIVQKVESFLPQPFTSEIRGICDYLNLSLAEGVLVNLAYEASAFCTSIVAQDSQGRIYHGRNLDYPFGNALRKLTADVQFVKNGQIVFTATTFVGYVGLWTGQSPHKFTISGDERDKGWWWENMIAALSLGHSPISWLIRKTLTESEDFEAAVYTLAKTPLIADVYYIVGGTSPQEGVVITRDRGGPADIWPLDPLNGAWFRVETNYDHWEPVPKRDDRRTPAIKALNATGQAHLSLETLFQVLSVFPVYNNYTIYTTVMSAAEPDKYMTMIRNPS
The assay is described as follows: UPLC/MS r-NAAA assay. The assay is classed as biochemical. The following applies: rat lung lysosomal NAAA preparation. Here is the method:
Lysosomal NAAA protein preparation was obtained by homogenizing male Sprague-Dawley rat lungs (Charles River) in 20 mM Tris-HCl buffer pH 7.4 containing 0.32M sucrose. Samples were centrifuged at 800×g for 15 min at 4° C. Supernatants were centrifuged at 12,000×g for 30 min at 4° C. Pellets were then resuspended in PBS pH 7.4 and subjected to a freeze/thaw cycle at −80° C. The suspension was finally centrifuged at 105,000 g for 1 h at 4° C. The supernatant was used in enzymatic assays.
NAAA preparations were pre-incubated with various concentrations of test compounds or vehicle control in 100 mM NaH2PO4/Citrate buffer, 1% Triton-X, 3 mM DTT (pH 4.5) for 30 min at 37° C. Samples were incubated with heptadecenoylethanolamide (50 μM, Avanti Polar Lipids) at 37° C. for 30 min. The reaction was terminated by addition of cold methanol containing heptadecanoic acid (NuCheck Prep) as internal standard. Samples were analyzed by UPLC/MS (Acquity, Waters). Heptadecenoic and heptadecanoic acids were eluted on an Acquity UPLC BEH C18 column (50 mm length, 2.1 mm i.d., 1.7 μm pore size, Waters) isocratically at 0.5 mL/min for 1.5 min with a solvent mixture of 95% methanol and 5% H2O, both containing 0.25% Acetic Acid and 5.0 mM ammonium acetate. The column temperature was 40° C. Electrospray ionization was in the negative mode, capillary voltage was 0.5 kV, cone voltage was […], desolvation temperature was 500° C. N2 was used as drying gas at a flow rate of 1000 L/hour and a temperature of 500° C. The [M−H]^− ion was monitored in the selected-ion monitoring mode (m/z values: heptadecenoic acid 267.37, heptadecanoic acid 269.37). Calibration curves were generated using commercial heptadecenoic acid (NuCheck Prep) Inhibition of NAAA activity was calculated as reduction of heptadecenoic acid in the samples compared to vehicle controls. IC50 values were calculated by non-linear regression analysis of log [concentration]/inhibition curves using GraphPad Prism 5 (GraphPad Software Inc., CA—USA) applying a standard slope curve fitting.

For the compound `O=C(CCCCCCc1ccccc1)N[C@H]1CNC1=O` [Example 7, 7-Phenyl-N-[(3S)-2-Oxoazetidin-3-yl]-heptanamide], in assay [1], the inhibition at 1 µM came to 25%. In addition, the half-maximal inhibitory concentration (IC50) on r-NAAA was 2100 nM.
Regarding `CCCCCCCCC(=O)N[C@H]1CNC1=O` [Example 3, N-[(3S)-2-Oxoazetidin-3-yl]-nonanamide], in assay [1], the inhibition at 1 µM worked out at 25%. Further, it took 240 nM to reach half-maximal inhibition against r-NAAA (IC50).
